One series has as its system male mice. Kind of series: Acute toxicity in vivo, median lethal dose. The following applies: intraperitoneal, approximate LD50 (Litchfield and Wilcoxon). The procedure: The synthesized compounds were evaluated for their approximate LD50 in male mice. The mice were kept under a constant temperature and humidity in sterile cages with water and food. The stock solutions of the compounds used in this study were prepared immediately before usage and injected intraperitoneally (ip). The LD50 values (Tab. 3) were calculated using the method described by Litchfield and Wilcoxon.
The median lethal dose (LD50), the dose of the selected compounds that causes 50% mortality in mice, was determined from dose–response curves with at least four doses by the method of Litchfield and Wilcoxon.

The test system of series [1] is Mycobacterium tuberculosis H37Rv strain (ATCC 27294). As to the kind of experiment: Antimycobacterial pre-screening at 6.25 μg/mL (BACTEC 460 radiometric system). The following applies: M. tuberculosis H37Rv; for inhibition at 6.25 µg/mL: 6.25 μg/mL; for MIC90: pre-screening, read-out: Estimation of MIC90. In kind it is cell-based.
The nature of the next series: in vitro. The following applies: African green monkey.
Another series deals with M. tuberculosis H37Rv. As to the kind of experiment: Microplate Alamar Blue Assay (MABA), MIC determination. The settings on record: two-fold dilution from 100.00 to 0.19 μg/mL. In kind it is cell-based, Mycobacterium tuberculosis.
Series [2] can be described thus: Cytotoxicity in VERO cells (MTT). The following applies: African green monkey.
[3] abbreviates: Mycobacterium tuberculosis, H37RV, read-out: MIC90.

Structures are written as SMILES. ≈ marks a conversion by molar mass, not a printed value. Like-named read-outs stand apart in the source and are kept apart here.

For orientation: inhibition means the relative decrease from the control value, in per cent. As a reminder, the MIC90 is an inhibitory concentration at the 90% level, which refers to growth in some studies and to a panel of isolates in others. As a reminder, the IC50 is the concentration that gives 50% inhibition.

Compound `O=C1C2=C(C(=O)c3ccccc31)C(c1ccc(F)cc1)c1sc(=O)[nH]c1S2` (stereo not drawn) [Compound 4h, 11-(4-Fluorophenyl)-3,11-dihydro-2H-benzo[6,7]thiochromeno[2,3-d][1,3]thiazole-2,5,10-trione] had an LD50ip in the series on male mice of 750 mg/kg. Besides, in series [1], the inhibition at 6.25 µg/mL was no less than 90% and the MIC90 was less than 6.25 µg/mL. This compound also registered an IC50 at 72 h in “in vitro” of 1.47 µg/mL (≈ 3.72 µM).

Compound `COc1cc(C2C3=C(Sc4[nH]c(=O)sc42)C(=O)c2ccccc2C3=O)ccc1OC(F)F` (stereo not drawn) [Compound 4d, 11-[4-(Difluoromethoxy)-3-methoxyphenyl]-3,11-dihydro-2H-benzo[6,7]thio-chromeno[2,3-d][1,3]thiazole-2,5,10-trione] had an LD50ip in the series on male mice of 710 mg/kg. In series [1], testing at 6.25 µg/mL gave an inhibition of 65% and the MIC90 was greater than 6.25 µg/mL.

For `NNC(=O)c1ccncc1` [Isoniazid, isoniazid, reference compound], the MIC90 with M. tuberculosis H37Rv (setting [3]) turned out to be 0.044 µg/mL (≈ 0.321 µM). In series [2], this compound gave an IC50 at 72 h greater than 6 µg/mL.

As for `O=C1C2=C(C(=O)c3ccccc31)C(c1ccc(Cl)cc1)c1sc(=O)[nH]c1S2` (stereo not drawn) [Compound 4g, 11-(4-Chlorophenyl)-3,11-dihydro-2H-benzo[6,7]thiochromeno[2,3-d][1,3]thiazole-2,5,10-trione], in the series on male mice, the LD50ip is given as greater than 1000 mg/kg. Also, in series [1], the inhibition at 6.25 µg/mL was no less than 90% and the MIC90 is less than 6.25 µg/mL. The compound also registered an IC50 at 72 h in “in vitro” of 1.58 µg/mL (≈ 3.84 µM).

Regarding `CC(C)(C)c1ccc(C2C3=C(Sc4[nH]c(=O)sc42)C(=O)c2ccccc2C3=O)cc1` (stereo not drawn) [Compound 4b, 11-(4-tert-Butylphenyl)-3,11-dihydro-2H-benzo[6,7]thiochromeno[2,3-d][1,3]thiazole-2,5,10-trione], in the series with male mice, the LD50ip is reported as 650 mg/kg. In series [1], the inhibition at 6.25 µg/mL was 61% and the MIC90 was greater than 6.25 µg/mL.

`COC(=O)c1ccc(C2C3=C(Sc4[nH]c(=O)sc42)C(=O)c2ccccc2C3=O)cc1` (stereo not drawn) [Compound 4c, Methyl 4-(2,5,10-trioxo-3,5,10,11-tetrahydro-2H-benzo[6,7]thiochromeno[2,3-d][1,3]thiazol-11-yl)benzoate] showed an LD50ip with male mice of 180 mg/kg. Besides, in series [1], the inhibition at 6.25 µg/mL was no less than 90% and the MIC90 was less than 6.25 µg/mL.

Regarding `O=C1C2=C(C(=O)c3ccccc31)C(c1ccccc1O)c1sc(=O)[nH]c1S2` (stereo not drawn) [Compound 4a, 11-(2-Hydroxyphenyl)-3, 11-dihydro-2H-benzo[6,7]thiochromeno[2,3-d][1,3]thiazole-2,5,10-trione], the MIC90 with M. tuberculosis H37Rv (setting [3]) was 0.6 to 2.7 µg/mL (≈ 1.52 to 6.86 µM); in the series on M. tuberculosis H37Rv it was 0.68 µg/mL (≈ 1.73 µM); in series [1], less than 6.25 µg/mL. Further, the LD50ip in the series on male mice turned out to be 800 mg/kg. This compound gave an inhibition at 6.25 µg/mL in series [1] of no less than 90%. In “in vitro”, the IC50 at 72 h was determined as 0.44 µg/mL (≈ 1.12 µM).

Take `CO[C@H]1/C=C/O[C@@]2(C)Oc3c(C)c(O)c4c(O)c(c(/C=N/N5CCN(C)CC5)c(O)c4c3C2=O)NC(=O)/C(C)=C\C=C\[C@H](C)[C@H](O)[C@@H](C)[C@@H](O)[C@@H](C)[C@H](OC(C)=O)[C@@H]1C` [Rifampin, reference compound]: the MIC90 in the series on M. tuberculosis H37Rv (setting [3]) is 0.075 µg/mL (≈ 0.0911 µM). The compound further displayed an IC50 at 72 h in series [2] greater than 6 µg/mL.
